Source: ChEMBL document CHEMBL5465560, “Selectivity Literature for EUbOPEN Chemogenomic Library” (2024)

Key:
[1] = biological target: Bromodomain-containing protein 4 (Homo sapiens, UniProt O60885); details: at 10 µM
[2] = biological target: T1, Mitogen-activated protein kinase kinase kinase kinase 3 (Homo sapiens) (UniProt Q8IVH8); assay: Selectivity interaction (Ambit KINOMEscan and KiNATiv profiling in Jurkat cells) EUB0000090b MAP4K3; type: cell-based; details: at 1 µM
T1 sequence (whole entry): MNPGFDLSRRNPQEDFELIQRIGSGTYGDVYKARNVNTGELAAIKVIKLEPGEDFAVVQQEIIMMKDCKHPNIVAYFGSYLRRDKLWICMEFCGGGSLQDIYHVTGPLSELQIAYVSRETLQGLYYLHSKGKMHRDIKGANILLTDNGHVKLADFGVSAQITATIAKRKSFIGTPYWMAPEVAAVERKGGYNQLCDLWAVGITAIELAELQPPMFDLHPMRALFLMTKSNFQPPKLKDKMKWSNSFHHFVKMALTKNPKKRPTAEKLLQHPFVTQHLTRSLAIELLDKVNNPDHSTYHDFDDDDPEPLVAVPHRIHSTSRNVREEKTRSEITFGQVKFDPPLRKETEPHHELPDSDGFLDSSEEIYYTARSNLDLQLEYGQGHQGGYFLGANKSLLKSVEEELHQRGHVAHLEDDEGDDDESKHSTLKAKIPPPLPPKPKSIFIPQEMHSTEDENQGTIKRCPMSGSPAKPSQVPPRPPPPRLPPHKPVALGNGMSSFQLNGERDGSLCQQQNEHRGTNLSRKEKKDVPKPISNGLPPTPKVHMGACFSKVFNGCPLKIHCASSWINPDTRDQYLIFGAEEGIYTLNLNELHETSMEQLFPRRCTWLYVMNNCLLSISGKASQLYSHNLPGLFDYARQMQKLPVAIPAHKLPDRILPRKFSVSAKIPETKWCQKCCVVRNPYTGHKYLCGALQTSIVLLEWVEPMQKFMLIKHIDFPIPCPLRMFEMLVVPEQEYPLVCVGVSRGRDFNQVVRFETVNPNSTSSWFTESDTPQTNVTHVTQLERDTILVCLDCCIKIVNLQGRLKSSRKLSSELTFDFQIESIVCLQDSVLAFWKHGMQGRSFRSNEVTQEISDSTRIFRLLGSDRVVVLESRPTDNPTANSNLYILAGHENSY

[3] = biological target: eIF-2-alpha kinase GCN2 (Homo sapiens) (UniProt Q9P2K8); assay: Selectivity interaction (ActivX KiNativ screen (kinase selectivity in THP-1 cell lysates)) EUB0000639a EIF2AK4; type: subcellular; details: lysate, at 1 µM
[4] = biological target: Ribosomal protein S6 kinase alpha-6 (Homo sapiens, UniProt Q9UK32); assay: Selectivity interaction (Kinase panel (Z-LYTE Assay)) EUB0001632a RPS6KA6; details: at 10 µM
[5] = biological target: Mitogen-activated protein kinase kinase kinase kinase 4 (Homo sapiens, UniProt O95819); assay: Selectivity interaction (Kinase panel (Z-LYTE Assay)) EUB0001632a MAP4K4; details: at 10 µM
[6] = biological target: Tyrosine-protein kinase receptor UFO (Homo sapiens) (UniProt P30530); assay: Selectivity interaction (Rxn Biology Kinase assay) EUB0001632a AXL; details: at 10 µM
[7] = biological target: Death-associated protein kinase 2 (Homo sapiens) (UniProt Q9UIK4); assay: Selectivity interaction (KinomeScan (DiscoverX)) EUB0000229b DAPK2; details: at 10 µM
[8] = biological target: Tyrosine-protein kinase JAK2 (Homo sapiens, UniProt O60674); assay: Selectivity interaction (KinomeScan (DiscoverX)) EUB0000229b JAK2; details: at 10 µM
[9] = biological target: T2, Ephrin type-A receptor 3 (Homo sapiens) (UniProt P29320); assay: Selectivity interaction (KinomeScan (DiscoverX)) EUB0000045b EPHA3
T2 sequence (whole entry): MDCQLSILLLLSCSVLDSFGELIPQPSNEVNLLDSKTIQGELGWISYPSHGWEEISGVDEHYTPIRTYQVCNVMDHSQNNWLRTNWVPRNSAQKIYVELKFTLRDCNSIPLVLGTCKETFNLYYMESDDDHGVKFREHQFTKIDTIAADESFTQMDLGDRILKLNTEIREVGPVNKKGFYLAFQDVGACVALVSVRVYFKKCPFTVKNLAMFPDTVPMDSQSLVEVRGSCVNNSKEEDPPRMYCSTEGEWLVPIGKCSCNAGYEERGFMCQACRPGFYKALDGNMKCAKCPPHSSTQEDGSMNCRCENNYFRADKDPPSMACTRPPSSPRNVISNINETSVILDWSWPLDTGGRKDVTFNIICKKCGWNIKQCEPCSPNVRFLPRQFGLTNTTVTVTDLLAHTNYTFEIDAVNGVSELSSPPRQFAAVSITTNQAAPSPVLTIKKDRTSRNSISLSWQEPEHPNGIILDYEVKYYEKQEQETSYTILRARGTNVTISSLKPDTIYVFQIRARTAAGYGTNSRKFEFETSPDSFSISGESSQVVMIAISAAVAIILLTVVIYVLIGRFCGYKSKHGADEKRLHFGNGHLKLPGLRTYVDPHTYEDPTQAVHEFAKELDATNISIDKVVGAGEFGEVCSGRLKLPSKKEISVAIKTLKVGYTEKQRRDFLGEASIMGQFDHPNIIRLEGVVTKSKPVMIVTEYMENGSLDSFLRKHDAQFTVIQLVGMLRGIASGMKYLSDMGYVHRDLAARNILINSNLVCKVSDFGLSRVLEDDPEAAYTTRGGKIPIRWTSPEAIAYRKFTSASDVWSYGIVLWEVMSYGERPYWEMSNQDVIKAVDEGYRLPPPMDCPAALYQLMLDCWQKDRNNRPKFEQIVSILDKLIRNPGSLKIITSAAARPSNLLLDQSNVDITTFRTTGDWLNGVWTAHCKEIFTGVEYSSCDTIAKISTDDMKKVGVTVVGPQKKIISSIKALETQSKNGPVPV

[10] = test system: Tyrosine-protein kinase ABL1 (Homo sapiens), P00519 [H396P]; assay: Selectivity interaction (KinomeScan (DiscoverX)) EUB0000045b ABL1; details: at 10 µM
[11] = biological target: Protein kinase C eta type (Homo sapiens) (UniProt P24723); assay: Selectivity interaction (KinomeScan (DiscoverX)) EUB0000607a PRKCH; details: at 10 µM
[12] = biological target: RAC-alpha serine/threonine-protein kinase (Homo sapiens, UniProt P31749); assay: Selectivity interaction (SelectScreen profiling (Invitrogen)) EUB0000607a AKT1; details: at 2 µM
Chain of RAC-alpha serine/threonine-protein kinase (P31749 whole entry): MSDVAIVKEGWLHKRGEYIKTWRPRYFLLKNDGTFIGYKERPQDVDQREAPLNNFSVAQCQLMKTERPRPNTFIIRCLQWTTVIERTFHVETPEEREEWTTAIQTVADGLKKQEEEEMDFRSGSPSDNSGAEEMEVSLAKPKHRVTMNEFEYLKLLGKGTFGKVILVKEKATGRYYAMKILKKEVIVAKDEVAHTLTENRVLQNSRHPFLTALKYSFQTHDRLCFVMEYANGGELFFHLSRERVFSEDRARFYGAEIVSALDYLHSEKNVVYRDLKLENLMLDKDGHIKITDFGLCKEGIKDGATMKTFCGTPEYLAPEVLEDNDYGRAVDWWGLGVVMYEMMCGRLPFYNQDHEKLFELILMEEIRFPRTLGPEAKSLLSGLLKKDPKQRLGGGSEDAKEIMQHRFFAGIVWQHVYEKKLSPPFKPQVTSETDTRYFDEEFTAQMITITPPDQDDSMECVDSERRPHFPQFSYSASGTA

Chain of Ribosomal protein S6 kinase alpha-6 (Q9UK32 whole entry): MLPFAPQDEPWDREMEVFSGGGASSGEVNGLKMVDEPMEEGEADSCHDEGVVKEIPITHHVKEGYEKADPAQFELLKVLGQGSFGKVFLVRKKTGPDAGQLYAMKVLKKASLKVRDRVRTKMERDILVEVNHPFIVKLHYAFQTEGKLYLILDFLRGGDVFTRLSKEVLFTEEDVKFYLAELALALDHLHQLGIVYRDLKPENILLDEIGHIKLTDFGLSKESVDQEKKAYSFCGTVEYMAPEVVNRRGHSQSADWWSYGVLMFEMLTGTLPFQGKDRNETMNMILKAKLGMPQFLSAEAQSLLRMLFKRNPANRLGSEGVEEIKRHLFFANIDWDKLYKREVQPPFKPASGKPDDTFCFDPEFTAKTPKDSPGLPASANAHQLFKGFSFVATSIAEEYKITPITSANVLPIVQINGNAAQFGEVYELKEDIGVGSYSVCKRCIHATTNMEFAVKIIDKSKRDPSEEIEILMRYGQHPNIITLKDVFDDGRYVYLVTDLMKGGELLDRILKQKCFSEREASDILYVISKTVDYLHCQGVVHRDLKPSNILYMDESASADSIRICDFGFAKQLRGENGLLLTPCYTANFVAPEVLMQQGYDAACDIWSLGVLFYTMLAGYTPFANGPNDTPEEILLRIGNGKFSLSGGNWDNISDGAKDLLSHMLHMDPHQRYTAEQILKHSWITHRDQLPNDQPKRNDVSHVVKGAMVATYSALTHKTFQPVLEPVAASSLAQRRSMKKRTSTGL
Chain of Mitogen-activated protein kinase kinase kinase kinase 4 (O95819 2-1239 limits assumed): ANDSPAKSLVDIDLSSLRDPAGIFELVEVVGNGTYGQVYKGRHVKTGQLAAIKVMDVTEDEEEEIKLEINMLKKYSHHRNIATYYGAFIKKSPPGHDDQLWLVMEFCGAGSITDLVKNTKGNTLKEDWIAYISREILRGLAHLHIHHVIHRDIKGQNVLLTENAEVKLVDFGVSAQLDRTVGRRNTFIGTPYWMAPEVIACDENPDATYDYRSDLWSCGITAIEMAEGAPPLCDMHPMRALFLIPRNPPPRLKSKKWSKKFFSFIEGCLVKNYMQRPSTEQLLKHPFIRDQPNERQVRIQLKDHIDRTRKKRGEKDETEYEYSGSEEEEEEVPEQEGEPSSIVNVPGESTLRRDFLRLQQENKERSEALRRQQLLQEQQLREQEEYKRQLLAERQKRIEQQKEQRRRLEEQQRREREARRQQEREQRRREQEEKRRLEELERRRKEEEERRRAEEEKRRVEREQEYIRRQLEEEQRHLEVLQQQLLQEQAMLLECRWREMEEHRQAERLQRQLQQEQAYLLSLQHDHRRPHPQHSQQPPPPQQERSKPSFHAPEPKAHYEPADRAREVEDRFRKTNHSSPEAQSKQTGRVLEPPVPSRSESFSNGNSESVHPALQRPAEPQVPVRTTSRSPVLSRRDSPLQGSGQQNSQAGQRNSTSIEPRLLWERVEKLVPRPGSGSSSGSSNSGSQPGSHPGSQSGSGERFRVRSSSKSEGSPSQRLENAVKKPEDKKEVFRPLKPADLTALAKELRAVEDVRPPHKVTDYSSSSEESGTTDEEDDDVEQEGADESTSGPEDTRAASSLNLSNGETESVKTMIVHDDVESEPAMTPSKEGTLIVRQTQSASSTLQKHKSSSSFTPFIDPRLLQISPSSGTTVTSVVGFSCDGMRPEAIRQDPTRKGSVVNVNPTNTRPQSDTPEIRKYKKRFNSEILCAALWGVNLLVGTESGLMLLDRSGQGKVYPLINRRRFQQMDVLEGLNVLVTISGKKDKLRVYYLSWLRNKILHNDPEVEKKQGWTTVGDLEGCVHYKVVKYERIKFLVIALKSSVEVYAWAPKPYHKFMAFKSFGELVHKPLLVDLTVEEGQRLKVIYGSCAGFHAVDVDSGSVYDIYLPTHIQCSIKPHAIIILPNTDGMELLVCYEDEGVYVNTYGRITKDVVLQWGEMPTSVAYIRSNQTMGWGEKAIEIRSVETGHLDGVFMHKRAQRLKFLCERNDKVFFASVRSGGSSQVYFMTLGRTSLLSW
Chain of Tyrosine-protein kinase JAK2 (O60674 whole entry): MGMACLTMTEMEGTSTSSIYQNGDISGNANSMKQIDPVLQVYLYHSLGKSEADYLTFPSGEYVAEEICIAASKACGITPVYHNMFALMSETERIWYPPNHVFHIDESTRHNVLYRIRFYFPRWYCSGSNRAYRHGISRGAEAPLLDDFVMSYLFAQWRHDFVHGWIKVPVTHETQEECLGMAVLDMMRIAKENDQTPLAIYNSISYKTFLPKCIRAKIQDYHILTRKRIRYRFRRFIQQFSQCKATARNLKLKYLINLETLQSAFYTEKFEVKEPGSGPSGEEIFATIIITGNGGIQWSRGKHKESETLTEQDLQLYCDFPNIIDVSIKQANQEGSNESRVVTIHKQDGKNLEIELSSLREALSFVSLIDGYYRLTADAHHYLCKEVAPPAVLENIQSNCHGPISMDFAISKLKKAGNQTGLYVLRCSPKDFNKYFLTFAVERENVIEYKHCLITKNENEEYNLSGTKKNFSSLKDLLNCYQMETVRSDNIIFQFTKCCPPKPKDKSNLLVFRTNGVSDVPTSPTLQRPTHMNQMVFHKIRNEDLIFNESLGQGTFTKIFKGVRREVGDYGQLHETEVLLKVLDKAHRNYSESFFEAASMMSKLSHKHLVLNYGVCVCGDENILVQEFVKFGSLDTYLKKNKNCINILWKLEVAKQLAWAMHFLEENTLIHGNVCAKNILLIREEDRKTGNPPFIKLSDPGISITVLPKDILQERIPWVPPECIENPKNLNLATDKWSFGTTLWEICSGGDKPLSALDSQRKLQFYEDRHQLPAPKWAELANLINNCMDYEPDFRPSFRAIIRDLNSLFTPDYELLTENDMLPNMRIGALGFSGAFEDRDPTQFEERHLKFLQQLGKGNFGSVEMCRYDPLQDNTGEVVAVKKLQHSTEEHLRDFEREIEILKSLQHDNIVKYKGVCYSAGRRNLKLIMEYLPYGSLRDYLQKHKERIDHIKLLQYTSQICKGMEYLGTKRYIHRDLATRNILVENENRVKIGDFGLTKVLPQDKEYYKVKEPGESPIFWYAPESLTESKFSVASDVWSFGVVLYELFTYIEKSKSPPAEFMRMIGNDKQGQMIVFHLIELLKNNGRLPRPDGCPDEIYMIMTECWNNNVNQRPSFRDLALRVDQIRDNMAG
Chain of Death-associated protein kinase 2 (Homo sapiens) (Q9UIK4 whole entry, looked up): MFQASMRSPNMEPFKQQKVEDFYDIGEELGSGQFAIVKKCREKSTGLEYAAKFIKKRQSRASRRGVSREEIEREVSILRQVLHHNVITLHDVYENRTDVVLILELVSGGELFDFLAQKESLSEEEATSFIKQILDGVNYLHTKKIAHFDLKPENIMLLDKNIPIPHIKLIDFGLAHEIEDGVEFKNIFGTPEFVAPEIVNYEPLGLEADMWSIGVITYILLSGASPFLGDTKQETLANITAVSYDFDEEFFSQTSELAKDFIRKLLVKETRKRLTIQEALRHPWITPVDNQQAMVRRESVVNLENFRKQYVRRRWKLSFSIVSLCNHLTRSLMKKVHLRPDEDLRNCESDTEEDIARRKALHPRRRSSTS
Chain of Protein kinase C eta type (Homo sapiens) (P24723 whole entry): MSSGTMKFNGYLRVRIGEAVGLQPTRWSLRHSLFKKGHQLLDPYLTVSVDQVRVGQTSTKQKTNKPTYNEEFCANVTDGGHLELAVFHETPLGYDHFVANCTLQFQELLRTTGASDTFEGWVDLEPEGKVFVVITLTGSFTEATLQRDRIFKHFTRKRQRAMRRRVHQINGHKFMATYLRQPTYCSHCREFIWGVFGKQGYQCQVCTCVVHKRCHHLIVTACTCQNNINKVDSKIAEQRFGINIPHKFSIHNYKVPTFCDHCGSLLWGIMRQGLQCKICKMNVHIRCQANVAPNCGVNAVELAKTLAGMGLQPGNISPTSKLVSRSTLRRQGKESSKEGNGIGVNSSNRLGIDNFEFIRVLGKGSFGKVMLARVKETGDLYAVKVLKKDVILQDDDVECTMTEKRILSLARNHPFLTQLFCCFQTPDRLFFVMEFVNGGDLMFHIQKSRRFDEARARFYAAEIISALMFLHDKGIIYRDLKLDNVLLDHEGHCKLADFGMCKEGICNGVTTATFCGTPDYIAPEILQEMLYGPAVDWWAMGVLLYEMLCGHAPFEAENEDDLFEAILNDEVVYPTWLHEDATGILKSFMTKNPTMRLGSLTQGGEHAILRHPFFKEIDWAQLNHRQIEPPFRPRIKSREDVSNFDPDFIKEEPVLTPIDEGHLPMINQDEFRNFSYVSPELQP

Q: How did the % of control [1] turn out when Cc1cc([C@@H](C)Nc2ccccc2C(=O)O)c2nc(N3CCOCC3)cc(=O)n2c1 [AZD-6482] was run?
A: The % of control was 82%.

Q: Which % of control [2] does the source give for CN(C)C/C=C/C(=O)Nc1ccc(C(=O)N2CCCC(Nc3ncc(Cl)c(-c4c[nH]c5ccccc45)n3)C2)cc1 (stereo not drawn) here?
A: The % of control was 95%.

Q: For CC[C@@H]1[C@H](F)C(=O)N[C@@H]1COc1nccc2cc(C(N)=O)c(OC)cc12 [ZIMLOVISERTIB], which % of inhibition [3] is on record?
A: The % of inhibition was 3.6%.

Q: With Cn1cc(-n2cnc3c(NCc4nc5cc(Cl)c(Cl)cc5[nH]4)nc(N4CCOCC4)nc32)cn1 as the compound, how does the % of control [4] read?
A: The % of control was 9.97%.

Q: What about the % of control [5] of the same compound?
A: The % of control was 4.98%.

Q: And the % of inhibition [6]?
A: The % of inhibition was 4.15%.

Q: Which % binding [7] does the source give for COc1cc(N(C)c2ccnc3ccc(C(F)(F)F)cc23)cc(OC)c1OC here?
A: Its % binding is 96%.

Q: What about the % binding [8] of the same compound?
A: Its % binding is 97%.

Q: For C=CC(=O)Nc1cc(-n2c(=O)ccc3cnc4ccc(-c5ccc(NS(C)(=O)=O)cc5)cc4c32)ccc1C, which % of control ([9]; at 1 µM) is on record?
A: The % of control was 89%.

Q: What about the % of control ([9]; at 10 µM) of the same compound?
A: Its % of control is 92%.

Q: What about the % of control [10] of the same compound?
A: Its % of control is 44%.

Q: Which % of control [11] does the source give for CNC(=O)Nc1ccc(-c2nc(N3CC4CCC(C3)O4)c3cnn(C4CCC5(CC4)OCCO5)c3n2)cc1 here?
A: Its % of control is 91%.

Q: And the % of inhibition [12]?
A: The % of inhibition was -5%.
